This experiment has as its target HKU4-CoV 3CL^pro (Bat coronavirus HKU4, UniProt P0C6W3). In kind it is biochemical, Tylonycteris bat coronavirus HKU4.

HKU4-CoV 3CL^pro, sequence (P0C6W3 3292-3597 limits assumed): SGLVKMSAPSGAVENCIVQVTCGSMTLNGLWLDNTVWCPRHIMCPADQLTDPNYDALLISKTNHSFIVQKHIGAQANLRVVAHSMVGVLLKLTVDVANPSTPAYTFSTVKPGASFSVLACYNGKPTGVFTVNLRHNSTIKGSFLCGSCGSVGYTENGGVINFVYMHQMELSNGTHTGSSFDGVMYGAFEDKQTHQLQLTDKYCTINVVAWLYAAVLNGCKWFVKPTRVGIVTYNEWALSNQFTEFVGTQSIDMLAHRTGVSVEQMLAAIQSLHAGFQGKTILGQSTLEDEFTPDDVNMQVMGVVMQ

Take `O=C(Cn1nnc2ccccc21)N(Cc1ccsc1)c1ccc(NCc2ccccc2)cc1` [17A]: the “increase in IC50” value came out at 10 fold.
Consider `O=C(Nc1ccc(N(Cc2ccsc2)C(=O)Cn2nnc3ccccc32)cc1)c1ccccc1` [2A], for which the “IC50 (μM)” value was “sub-micromolar”.
The compound `O=C(Cn1nnc2ccccc21)N(Cc1ccsc1)c1ccc(-c2ccncc2)cc1` [5A] showed a fold more active of 2 fold.
For the compound `CC(=O)Nc1ccc(N(C(=O)Cn2nnc3ccccc32)C(C(=O)NC(C)(C)C)c2ccsc2)cc1` (stereo not shown) [3B], the “increase in IC50” value stood at 5 fold.
Still for that read-out and setting: as for `O=C(Cn1nnc2ccccc21)NCc1ccsc1` [22A, 2-(1H-Benzo[d][1,2,3]triazol-1-yl)-N-(thiophen-3-ylmethyl)acetamide], the entry is “greater than 200 fold”.
In the case of `O=C(Nc1ccc(N(Cc2ccsc2)C(=O)Cn2nnc3ccccc32)cc1)c1cccs1` [1A], the “IC50 (μM)” value was “sub-micromolar”.
`CC(C)C(=O)Nc1ccc(N(Cc2ccsc2)C(=O)Cn2ccnn2)cc1` [19A]: the “decrease in inhibitory potency between the analogs” value is listed as “ten-fold”.
